Laboratory results: patent US9737582B2, “Method for improving memory of a subject using a composition comprising Cistanche and Ginkgo extracts” (Access Business Group International LLC, priority 2014, dated 2017)

B1: NGF: mouse nerve growth factor applied acutely to cultures (protein, UniProt P01139 122-241, looked up)
Beta-nerve growth factor: SSTHPVFHMGEFSVCDSVSVWVGDKTTATDIKGKEVTVLAEVNINNSVFRQYFFETKCRASNPVESGCRGIDSKHWNSYCTTTHTFVKALTTDEKQAAWRFIRIDTACVCVLSRKATRRG
modifications: Beta-nerve growth factor
notes: mouse nerve growth factor applied acutely to cultures

How the values were obtained:
Assay type in all cases: cell-based, murine
[1] = system: hippocampal cultures; test: Chronic treatment of hippocampal cultures on MEA neurochips, spontaneous network activity; settings: chronic treatment 4-28 days in vitro; 30 μg/ml Cistanche, 300 nM Donepezil
Excerpt: Microelectrode array (MEA) neurochips were utilized to analyze various examples. Specifically, use of MEA neurochips enabled stimulation and recording of bioelectricity with high spatial and temporal resolution, to glean neuroactivity of the Cistanche and Ginkgo extracts, alone and in combination, and with neuronal growth factors.
MEA neurochips are available from NeuroProof GmbH of Rostock, Germany. The electrophysiological properties of compounds can be evaluated using their ability for induction of activity changes in neuronal networks grown on MEA neurochips. Routine monitoring of internal dynamics of mammalian neuronal networks is possible. […]
FIG. 8 illustrates examples of the study to assess chronic effects of Cistanche tubulosa extract on maturation of a neuronal network. […] At 28 days after repeated dose chronic treatment, spontaneous activity was measured, followed by recording of activity to acute NGF concentration-response curve. […]
Multichannel recording delivered single neuron spike data and spike identification and separation were accomplished with a template-matching algorithm in real time, to allow the extracellular recording of action potentials from 256 neurons simultaneously. The action potentials or “spikes” were recorded in spike trains and clustered in bursts, which can be quantitatively described via direct spike train analysis. […]

[2] = system: hippocampal cultures; test: Acute NGF concentration-response on chronically treated hippocampal cultures, MEA neurochips; settings: acute mNGF 3 ng/ml to 1 μg/ml
Experimental: FIG. 8 illustrates examples of the study to assess chronic effects of Cistanche tubulosa extract on maturation of a neuronal network. Hippocampal cultures on MEA neurochips were treated with 30 μg/ml Cistanche, 300 nM Donepezil, or a dimethyl sulfoxide (“DMSO”) vehicle control. At 28 days after repeated dose chronic treatment, spontaneous activity was measured, followed by recording of activity to acute NGF concentration-response curve.
FIG. 19A is a first portion of a heat map and FIG. 19B is a second portion of the heat map. The heat map illustrates concentration dependent effects of acute mouse nerve growth factor (“mNGF”) on network activity of chronically treated hippocampal cultures with the mixtures or components described above for FIG. 18.
The heat map illustrates significant changes on the 60 most representative parameters for each mNGF concentration, from 3 ng/ml to 1 μg/ml. The color code changes in activity parameters according to the percent changes (100:no change), with yellow/red=an increase and green/blue=a decrease.

[3] = system: hippocampal network morphology; test: Immuno-histochemical analysis of recorded cultures, semi-automatic quantitative image analysis; settings: chronic 4-28 days in vitro; 30 μg/ml Cistanche, 300 nM Donepezil
Excerpt: FIG. 5A is an example image associated with semi-automatic quantification of neurons/image, neurites/image, synapses/image, and synapse/neurite ratio. The image depicts color-merge of synapse (green), neurites (red), nuclei (blue), bar=50 μm.
FIG. 5B is an example image corresponding to synapse channel: color-inverted and analyzed for synapse particles (red labeled after automatic threshold, particle separation and size filter).
FIG. 9 illustrates examples of the study directed at immuno-histochemical analysis. Recorded cultures are further analyzed by immunocytochemistry, fluorescence microscopy and semi-automatic quantitative image analysis. Images are quantified per image for: cell number, neuronal number, neurite number, synapse number, % neurons, neurites per neuron, and synapses per neuron. […]
Recorded cultures were further analyzed by immunocytochemistry, fluorescent microscopy and quantitative image analysis for morphological findings. Semi-automatic quantification (mean±SEM, student's t-test: *p≦0.05; n=3 with 10-20 images each.)
FIG. 21 are images associated with semi-automatic quantification of total cells/field, percentage of neurons, neuritic density, and synaptic number/field. […] The rightmost images correspond to synapse channel: color inverted and analyzed for synapse particles.

Molecule	spontaneous network activity [1]	effect of chronic treatment on the acute NGF response ([2]; chronic 4-28 days in vitro, 30 μg/ml Cistanche, 300 nM Donepezil, mixture at 10 and 30 μg/ml)	global synapse number [3]	effect of acute NGF alone on general activity ([2]; vehicle-treated cultures)
COc1cc2c(cc1OC)C(=O)C(CC1CCN(Cc3ccccc3)CC1)C2 (stereo not shown) [Donepezil]	enhanced the spontaneous network activity	compensated the inhibitory acute NGF response	increase	
B1				inhibition of general activity
